# According to the OligoGym collection:
# Where “and” joins values, the source holds several entries; their conditions need not be identical. Equal values may be shown once. After the bases stand the sugars from the 5' end (letter, count) and the backbone: PS all phosphorothioate, else s phosphorothioate and o phosphodiester by linkage. HELM strings list units from the 5' end as sugar, base in round brackets, then linkage (d deoxyribose, r ribose, m 2'-O-methyl, p phosphodiester). Methylation of C is not given here. [moe] = 2'-O-(2-methoxyethyl) (MOE); [cEt] = constrained ethyl (cEt); [sp] = phosphorothioate linkage; e = 2'-O-(2-methoxyethyl) (MOE); k = constrained ethyl (cEt); d = 2'-deoxy (DNA)
# What was measured:
# KRAS = conditions: ASO
# HBV = conditions: ASO, HepG2, 0.07 µM
Substance,"target mRNA inhibition (KRAS; A431, 2 µM) [%]",target mRNA inhibition (HBV),also measured
"AAAGTGTTTATGCAAT (sugars k3 d10 k3, PS)",29,–,–
"GTATTAACACAGAAGT (sugars k3 d10 k3, PS)",0,–,–
"CTGTCTATTCATACCA (sugars k3 d10 k3, PS)",34,–,–
"GGGCATTTCTGATGTG (sugars k3 d10 k3, PS)",7,–,–
"AGGCAAGATGACACTA (sugars k3 d10 k3, PS)",21,–,–
"GGAGATATCCACAGCA (sugars k3 d10 k3, PS)",0,–,–
"GTGTTTATGCAATGTT (sugars kkkdddddddddkeke, PS)",66,–,"target mRNA inhibition (KRAS; A431, 0.185 µM): 30%; target mRNA inhibition (KRAS; A431, 0.556 µM): 55%; target mRNA inhibition (KRAS; A431, 1.667 µM): 80%; target mRNA inhibition (KRAS; A431, 5 µM): 85%"
"AGGAGTCTTTATAGTA (sugars kdddddddddkekeke, PS)",24,–,–
"TGGTGTAACATAGGTT (sugars kkddddddddddkeke, PS)",67,–,"target mRNA inhibition (KRAS; A431, 0.185 µM): 28%; target mRNA inhibition (KRAS; A431, 0.556 µM): 62%; target mRNA inhibition (KRAS; A431, 1.667 µM): 74%; target mRNA inhibition (KRAS; A431, 5 µM): 87%; target mRNA inhibition (KRAS; NCI-H460, 0.037 µM): 64.3%"
"GCTATTAGGAGTCTTT (sugars k3 d10 k3, PS)",–,–,"target mRNA inhibition (KRAS; A431, 0.125 µM): 68% and 67%; target mRNA inhibition (KRAS; A431, 0.185 µM): 33% and 16% and 26%; target mRNA inhibition (KRAS; A431, 0.556 µM): 50% and 47% and 44%; target mRNA inhibition (KRAS; A431, 1.667 µM): 77% and 67% and 58%; target mRNA inhibition (KRAS; NCI-H460, 0.037 µM): 69.9%"
"AACAAATGCTAATAAT (sugars k3 d10 k3, PS)",0,–,–
"CCATTTATGTGACTAG (sugars kkdddddddddkekek, PS)",25,–,–
"ACCAGTGTTAAGAGAA (sugars kdddddddddkekeke, PS)",50,–,–
"CCAGTGATACTTTCAC (sugars k3 d10 k3, PS)",15,–,–
"AAAAAAATTAATGTCT (sugars k3 d10 k3, PS)",7,–,–
"AGGCATTGCTAGTTCA (sugars k3 d10 k3, PS)",55,–,–

Substance,"target mRNA inhibition (KRAS; A431, 2 µM) [%]",target mRNA inhibition (HBV),also measured
RNA1{[moe](A)[sp].[moe](A)[sp].[moe](T)[sp].[moe](T)[sp].[moe](T)[sp].d(A)[sp].d(T)[sp].d(G)[sp].d(C)[sp].d(C)[sp].d(T)[sp].d(A)[sp].d(C)[sp].d(A)[sp].[moe](G)[sp].[moe](C)}$$$$V2.0,–,39% and 23%,–
RNA1{[moe](C)[sp].[moe](G)[sp].[moe](G)[sp].[moe](G)[sp].[moe](C)[sp].d(A)[sp].d(A)[sp].d(C)[sp].d(A)[sp].d(T)[sp].d(A)[sp].d(C)[sp].d(C)[sp].d(T)[sp].[moe](T)[sp].[moe](G)}$$$$V2.0,–,54% and 53%,–
RNA1{[moe](T)[sp].[moe](G)[sp].[moe](A)[sp].[moe](A)[sp].[moe](G)[sp].d(C)[sp].d(G)[sp].d(A)[sp].d(A)[sp].d(G)[sp].d(T)[sp].d(G)[sp].d(C)[sp].d(A)[sp].[moe](C)[sp].[moe](A)[sp].[moe](C)}$$$$V2.0,–,13% and 38%,–
RNA1{[moe](A)[sp].[moe](G)[sp].[moe](A)[sp].[moe](T)[sp].[moe](G)[sp].d(A)[sp].d(G)[sp].d(G)[sp].d(C)[sp].d(A)[sp].d(T)[sp].d(A)[sp].d(G)[sp].d(C)[sp].[moe](A)[sp].[moe](G)}$$$$V2.0,–,41% and 31%,–
RNA1{[moe](A)[sp].[cEt](A)[sp].[cEt](G)[sp].d(T)[sp].d(C)[sp].d(C)[sp].d(A)[sp].d(C)[sp].d(C)[sp].d(A)[sp].d(C)[sp].d(G)[sp].d(A)[sp].[cEt](G)[sp].[cEt](T)[sp].[moe](C)}$$$$V2.0,–,59% and 46%,–
RNA1{[moe](A)[sp].[moe](G)[sp].[moe](G)[sp].[moe](T)[sp].d(G)[sp].d(A)[sp].d(A)[sp].d(G)[sp].d(C)[sp].d(G)[sp].d(A)[sp].d(A)[sp].d(G)[sp].[moe](T)[sp].[moe](G)[sp].[moe](C)}$$$$V2.0,–,3% and 19%,–
RNA1{[moe](G)[sp].[moe](A)[sp].[moe](T)[sp].d(G)[sp].d(A)[sp].d(G)[sp].d(G)[sp].d(C)[sp].d(A)[sp].d(T)[sp].d(A)[sp].d(G)[sp].[moe](C)[sp].[moe](A)[sp].[moe](G)[sp].[moe](C)[sp].[moe](A)}$$$$V2.0,–,51%,–
RNA1{[moe](G)[sp].[moe](A)[sp].d(A)[sp].d(C)[sp].d(T)[sp].d(G)[sp].d(G)[sp].d(A)[sp].d(G)[sp].d(C)[sp].d(C)[sp].[moe](A)[sp].[moe](C)[sp].[moe](C)[sp].[moe](A)[sp].[moe](G)[sp].[moe](C)}$$$$V2.0,–,70% and 69%,–
RNA1{[moe](C)[sp].[moe](T)[sp].[moe](A)[sp].[moe](G)[sp].[moe](T)[sp].d(A)[sp].d(A)[sp].d(A)[sp].d(C)[sp].d(T)[sp].d(G)[sp].d(A)[sp].d(G)[sp].d(C)[sp].[moe](C)[sp].[moe](A)}$$$$V2.0,–,71% and 63%,–
RNA1{[moe](C)[sp].[cEt](A)[sp].d(A)[sp].d(T)[sp].d(T)[sp].d(T)[sp].d(A)[sp].d(T)[sp].d(G)[sp].d(C)[sp].d(C)[sp].d(T)[sp].[cEt](A)[sp].[moe](C)[sp].[cEt](A)[sp].[moe](G)}$$$$V2.0,–,35% and 34%,–
RNA1{[moe](C)[sp].[moe](A)[sp].[moe](A)[sp].d(T)[sp].d(T)[sp].d(T)[sp].d(A)[sp].d(T)[sp].d(G)[sp].d(C)[sp].d(C)[sp].d(T)[sp].[moe](A)[sp].[moe](C)[sp].[moe](A)[sp].[moe](G)[sp].[moe](C)}$$$$V2.0,–,33% and 41%,–
RNA1{[moe](A)[sp].[moe](G)[sp].[moe](G)[sp].[moe](C)[sp].d(A)[sp].d(T)[sp].d(A)[sp].d(G)[sp].d(C)[sp].d(A)[sp].d(G)[sp].d(C)[sp].d(A)[sp].[moe](G)[sp].[moe](G)[sp].[moe](A)}$$$$V2.0,–,52% and 36%,–
RNA1{[moe](G)[sp].[moe](T)[sp].[moe](T)[sp].[moe](C)[sp].[moe](C)[sp].d(G)[sp].d(C)[sp].d(A)[sp].d(G)[sp].d(T)[sp].d(A)[sp].d(T)[sp].d(G)[sp].d(G)[sp].[moe](A)[sp].[moe](T)}$$$$V2.0,–,54% and 51%,–
RNA1{[moe](G)[sp].[cEt](G)[sp].d(C)[sp].d(A)[sp].d(T)[sp].d(A)[sp].d(G)[sp].d(C)[sp].d(A)[sp].d(G)[sp].d(C)[sp].d(A)[sp].[cEt](G)[sp].[moe](G)[sp].[cEt](A)[sp].[moe](T)}$$$$V2.0,–,74% and 75%,–
RNA1{[moe](A)[sp].[moe](C)[sp].d(T)[sp].d(G)[sp].d(G)[sp].d(A)[sp].d(G)[sp].d(C)[sp].d(C)[sp].d(A)[sp].d(C)[sp].[moe](C)[sp].[moe](A)[sp].[moe](G)[sp].[moe](C)[sp].[moe](A)}$$$$V2.0,–,53% and 42%,–
